Read-outs that look alike come from different tables or passages of the source.
Tests used:
[1] = target: HER2 exon 20 insertion mutant (HER2ex20insYVMA, A775_G776insYVMA) (Homo sapiens, UniProt P04626, DUP772-775); assay: Inhibitory action (in vitro) against HER2 exon 20 insertion mutant phosphorylation activity; type: biochemical; conditions: 30 min pre-incubation, ATP 200 μM, 25° C. 220 minutes
Outline: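 Purified recombinant human HER2 A775_G776insYVMA pre-incubated with compound (5% DMSO) 30 min at 25 °C in Tris pH 7.5 buffer; reaction with 1 μM ProfilerPro Peptide 22, 200 μM ATP, 25 mM MnCl2, 20 mM MgCl2 for 220 min at 25 °C, stopped with EDTA. Phosphorylated and unphosphorylated peptide separated by microchannel capillary electrophoresis.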

[2] = Evaluation of brain penetration properties; type: in vivo, BALB/cA mice; conditions: mouse, 0.5 hours after oral 50 mg/kg/day, BALB/cA mice; for Kp at 0.5 h: read-out: Kp value (Compound concentration in brain/plasma)
SK-BR-3 cells = assay: Growth inhibitory activity against HER2 expressing cell line SK-BR-3; type: cell-based; conditions: Homo sapiens, SK-BR-3, 72 h; 3 days, CellTiter-Glo 2.0
Outline: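 SK-BR-3 cells in McCoy's 5a with 10% FBS, pre-cultured 1 day, then exposed to compound (final DMSO 0.2%) for 3 days at 37° C, 5% CO2. Viability by CellTiter-Glo 2.0 luminescence; growth inhibition % = (C−T)/C×100 versus untreated wells.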

HER2 = target: T1, HER2 (Homo sapiens, UniProt P04626); assay: Inhibitory effect (in vitro) on HER2 phosphorylation activity; type: biochemical; conditions: recombinant human HER2, ATP 5 μM, 25° C. 30 minutes
T1 construct: purchased Carna Biosciences, Inc
T1 sequence (P04626 23-1255): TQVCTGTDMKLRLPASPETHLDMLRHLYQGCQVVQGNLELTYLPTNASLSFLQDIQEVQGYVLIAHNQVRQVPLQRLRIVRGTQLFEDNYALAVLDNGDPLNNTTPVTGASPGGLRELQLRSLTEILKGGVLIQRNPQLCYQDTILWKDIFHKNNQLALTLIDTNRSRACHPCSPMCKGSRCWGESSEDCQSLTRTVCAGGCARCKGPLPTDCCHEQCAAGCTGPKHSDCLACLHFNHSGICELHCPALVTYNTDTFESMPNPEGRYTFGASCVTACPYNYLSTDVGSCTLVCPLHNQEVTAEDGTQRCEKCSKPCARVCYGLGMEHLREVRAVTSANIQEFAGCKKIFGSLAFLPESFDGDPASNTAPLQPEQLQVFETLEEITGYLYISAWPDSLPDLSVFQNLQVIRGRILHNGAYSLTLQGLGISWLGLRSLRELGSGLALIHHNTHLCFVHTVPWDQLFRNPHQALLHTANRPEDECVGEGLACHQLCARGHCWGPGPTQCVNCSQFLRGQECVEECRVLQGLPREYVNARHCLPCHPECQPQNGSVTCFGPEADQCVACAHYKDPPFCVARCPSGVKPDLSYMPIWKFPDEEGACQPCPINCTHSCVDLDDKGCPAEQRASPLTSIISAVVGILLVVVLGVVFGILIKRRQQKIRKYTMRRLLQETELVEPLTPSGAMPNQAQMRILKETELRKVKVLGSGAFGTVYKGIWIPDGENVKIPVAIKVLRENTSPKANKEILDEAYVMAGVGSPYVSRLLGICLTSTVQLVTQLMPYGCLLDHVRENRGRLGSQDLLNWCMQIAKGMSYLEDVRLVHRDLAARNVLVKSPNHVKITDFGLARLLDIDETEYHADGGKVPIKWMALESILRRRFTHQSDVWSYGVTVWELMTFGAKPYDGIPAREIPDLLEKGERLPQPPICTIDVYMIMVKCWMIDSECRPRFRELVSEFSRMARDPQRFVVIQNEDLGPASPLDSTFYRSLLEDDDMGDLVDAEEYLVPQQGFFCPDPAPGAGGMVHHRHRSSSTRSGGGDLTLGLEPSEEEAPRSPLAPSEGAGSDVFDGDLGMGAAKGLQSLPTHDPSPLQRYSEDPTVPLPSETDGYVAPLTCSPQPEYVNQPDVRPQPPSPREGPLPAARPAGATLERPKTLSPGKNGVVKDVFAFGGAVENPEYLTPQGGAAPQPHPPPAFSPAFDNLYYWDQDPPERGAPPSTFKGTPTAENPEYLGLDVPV
Outline: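 Purified recombinant human HER2 phosphorylating 5-FAM-labeled ProfilerPro Peptide 22 substrate, compounds serially diluted in DMSO. Reaction stopped with EDTA at 30 mM final; unphosphorylated and phosphorylated peptides separated and detected by microchannel capillary electrophoresis.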

[3] = Evaluation of oral absorbability; type: in vivo, BALB/cA mice; conditions: mouse; plasma, oral 50 mg/kg/day, BALB/cA mice
Ba/F3-HER2insYVMA cells = Ba/F3-HER2insYVMA cells (Homo sapiens, UniProt P04626, DUP772-775, cells depend on it); assay: Growth inhibitory activity against HER2 exon 20 insertion mutant expressing cell line; type: cell-based, mouse; conditions: 3 days, CellTiter-Glo 2.0, read-out: HER2ex20insYVMA cell growth inhibitory activity IC50 value
Sequence of Ba/F3-HER2insYVMA cells (P04626 with tags, fused parts or gaps DUP772-775): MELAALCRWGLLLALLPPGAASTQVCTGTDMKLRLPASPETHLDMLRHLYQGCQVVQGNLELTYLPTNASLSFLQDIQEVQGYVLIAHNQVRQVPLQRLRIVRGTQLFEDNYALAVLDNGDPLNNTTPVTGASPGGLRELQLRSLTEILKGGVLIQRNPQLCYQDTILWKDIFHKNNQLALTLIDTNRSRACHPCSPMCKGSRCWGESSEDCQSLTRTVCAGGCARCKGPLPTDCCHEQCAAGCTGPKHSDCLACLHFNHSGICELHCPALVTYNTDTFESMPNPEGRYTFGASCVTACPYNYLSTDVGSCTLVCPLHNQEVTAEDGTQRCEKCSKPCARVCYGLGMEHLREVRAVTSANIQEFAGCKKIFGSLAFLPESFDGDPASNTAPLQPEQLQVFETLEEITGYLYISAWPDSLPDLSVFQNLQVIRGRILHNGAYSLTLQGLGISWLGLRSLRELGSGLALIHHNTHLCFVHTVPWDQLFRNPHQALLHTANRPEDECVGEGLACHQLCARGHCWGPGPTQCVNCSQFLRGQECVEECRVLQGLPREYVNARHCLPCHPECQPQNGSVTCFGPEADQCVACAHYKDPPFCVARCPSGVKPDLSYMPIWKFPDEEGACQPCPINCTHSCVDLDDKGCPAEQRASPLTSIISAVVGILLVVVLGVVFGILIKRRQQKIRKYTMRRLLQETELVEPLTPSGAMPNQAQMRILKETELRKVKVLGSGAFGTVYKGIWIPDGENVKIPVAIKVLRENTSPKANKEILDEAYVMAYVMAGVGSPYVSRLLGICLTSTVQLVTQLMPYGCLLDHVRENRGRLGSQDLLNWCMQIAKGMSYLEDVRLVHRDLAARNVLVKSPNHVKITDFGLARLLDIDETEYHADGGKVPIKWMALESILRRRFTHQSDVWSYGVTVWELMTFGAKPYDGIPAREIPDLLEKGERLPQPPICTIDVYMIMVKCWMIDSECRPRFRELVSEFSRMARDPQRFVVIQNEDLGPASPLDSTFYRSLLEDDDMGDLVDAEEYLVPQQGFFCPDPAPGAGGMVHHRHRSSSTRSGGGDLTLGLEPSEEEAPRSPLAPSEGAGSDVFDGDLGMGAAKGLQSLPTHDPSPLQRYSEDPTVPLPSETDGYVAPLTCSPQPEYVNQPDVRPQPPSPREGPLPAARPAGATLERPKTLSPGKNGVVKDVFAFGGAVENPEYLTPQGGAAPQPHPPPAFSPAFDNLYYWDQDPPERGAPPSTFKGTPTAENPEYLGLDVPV

[4] = brain, read-out: Compound concentration in brain
[5] = plasma, read-out: Compound concentration in plasma

Sequence of HER2 exon 20 insertion mutant (HER2ex20insYVMA, A775_G776insYVMA) (P04626 with tags, fused parts or gaps DUP772-775): as above

Row | IC50 [1] | concentration at 0.5 h [2, 4] | Kp at 0.5 h ([2]; brain) | concentration at 0.5 h [2, 5] | IC50 (SK-BR-3 cells) | IC50 (HER2) | AUC(0-t) [3] | GI50 (Ba/F3-HER2insYVMA cells) | SMILES
1 | 0.37 nM | 2.8 µM | 0.34 | 8.3 µM | 5.6 nM | 3.9 nM | 12 µM·h | 20 nM | C=CC(=O)N1C[C@H](n2c(C#CC)c(C(=O)N[C@H](CC)c3ccccc3)c3c(N)ncnc32)C[C@@H]1C [Example 4, 7-((3R,5S)-1-acryloyl-5-methylpyrrolidin-3-yl)-4-amino-N—((R)-1-phenylpropyl)-6-(prop-1-yn-1-yl)-7H-pyrrolo[2,3-d]pyrimidine-5-carboxamide]
2 | 0.54 nM | 6.5 µM | 0.39 | 17 µM | 4 nM | 2.9 nM | 21 µM·h | 20 nM | C=CC(=O)N1C[C@H](n2c(C#CC3CC3)c(C(=O)N[C@H](C)c3ccccc3)c3c(N)ncnc32)C[C@@H]1CC [Example 17, 7-((3R,5S)-1-acryloyl-5-ethylpyrrolidin-3-yl)-4-amino-6-(cyclopropylethynyl)-N—((R)-1-phenylethyl)-7H-pyrrolo[2,3-d]pyrimidine-5-carboxamide]
3 | < 0.3 nM | 1.4 µM | 0.13 | 11 µM | 4.5 nM | 5.8 nM | 24 µM·h | 25 nM | C=CC(=O)N1C[C@H](n2c(C#CC)c(C(=O)NC(C)(C)c3ccccc3)c3c(N)ncnc32)C[C@@H]1C [Example 3, 7-((3R,5S)-1-acryloyl-5-methylpyrrolidin-3-yl)-4-amino-N-(2-phenylpropan-2-yl)-6-(prop-1-yn-1-yl)-7H-pyrrolo[2,3-d]pyrimidine-5-carboxamide]
4 | 0.32 nM | 2.4 µM | 0.18 | 13 µM | 4.2 nM | 5.6 nM | 51 µM·h | 24 nM | C=CC(=O)N1C[C@H](n2c(C#CC3CC3)c(C(=O)NC(C)(C)c3ccccc3)c3c(N)ncnc32)C[C@@H]1C [Example 9, 7-((3R,5S)-1-acryloyl-5-methylpyrrolidin-3-yl)-4-amino-6-(cyclopropylethynyl)-N-(2-phenylpropan-2-yl)-7H-pyrrolo[2,3-d]pyrimidine-5-carboxamide]
5 | 0.38 nM | 2.2 µM | 0.15 | 15 µM | 4 nM | 7.7 nM | 20 µM·h | 14 nM | C=CC(=O)N1C[C@H](n2c(C#CC)c(C(=O)NC(C)(C)c3ccccc3F)c3c(N)ncnc32)C[C@@H]1C [Example 5, 7-((3R,5S)-1-acryloyl-5-methylpyrrolidin-3-yl)-4-amino-N-(2-(2-fluorophenyl)propan-2-yl)-6-(prop-1-yn-1-yl)-7H-pyrrolo[2,3-d]pyrimidine-5-carboxamide]
6 | 0.34 nM | 1.4 µM | 0.15 | 9.1 µM | 9.3 nM | 2.7 nM | 50 µM·h | 17 nM | C=CC(=O)N1C[C@H](n2c(C#CC)c(C(=O)N[C@H](C)c3cc(F)cc(F)c3)c3c(N)ncnc32)C[C@@H]1C [Example 1, 7-(R)-((3R,5S)-1-acryloyl-5-methylpyrrolidin-3-yl)-4-amino-N—((R)-1-(3,5-difluorophenyl)ethyl)-6-(prop-1-yn-1-yl)-7H-pyrrolo[2,3-d]pyrimidine-5-carboxamide]
7 | 0.39 nM | 3.2 µM | 0.29 | 11 µM | 17 nM | 3.4 nM | 36 µM·h | 43 nM | C=CC(=O)N1C[C@H](n2c(C#CC(C)(C)C)c(C(=O)N[C@H](C)c3ccccc3)c3c(N)ncnc32)C[C@@H]1C [Example 12, 7-((3R,5S)-1-acryloyl-5-methylpyrrolidin-3-yl)-4-amino-6-(3,3-dimethylbut-1-yn-1-yl)-N—((R)-1-phenylethyl)-7H-pyrrolo[2,3-d]pyrimidine-5-carboxamide]

— US11078207B2, “Substituted pyrrolo[2,3-d]pyrimidines as HER2 inhibitors” (TAIHO PHARMACEUTICAL CO., LTD., priority 2019, dated 2021)
